Test results taken from patent US6645774B1 (Synaptic Pharmaceutical Corporation, priority 1994, dated 2003).
Counter-ions that a name gives are not always drawn. Like-named read-outs stand apart in the source and are kept apart here. Each block holds one molecule with its values, some of them ahead of it.

Assays:
human 5HT1F receptor = molecular target: T1, human 5HT1F receptor (Homo sapiens, UniProt P30939); assay: Cross-reactivity binding, human 5HT1F receptor; conditions: for Receptor (pKi) 5HT1F: cloned human receptor
T1 sequence (P30939 1-366): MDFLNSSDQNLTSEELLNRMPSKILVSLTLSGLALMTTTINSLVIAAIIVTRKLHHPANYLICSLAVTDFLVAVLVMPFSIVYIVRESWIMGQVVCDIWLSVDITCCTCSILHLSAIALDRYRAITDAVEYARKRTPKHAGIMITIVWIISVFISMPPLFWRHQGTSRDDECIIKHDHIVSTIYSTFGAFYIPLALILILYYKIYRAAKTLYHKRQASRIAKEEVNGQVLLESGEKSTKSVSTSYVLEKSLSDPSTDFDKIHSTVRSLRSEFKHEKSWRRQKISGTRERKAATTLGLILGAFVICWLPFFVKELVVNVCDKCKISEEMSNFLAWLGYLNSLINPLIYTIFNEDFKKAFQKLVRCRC

human 5HT1E receptor = human 5HT1E receptor (Homo sapiens, UniProt P28566); assay: Cross-reactivity binding, human 5HT1E receptor; conditions: for Receptor (pKi) 5HT1E: cloned human receptor
Chain of human 5HT1E receptor (P28566 whole entry): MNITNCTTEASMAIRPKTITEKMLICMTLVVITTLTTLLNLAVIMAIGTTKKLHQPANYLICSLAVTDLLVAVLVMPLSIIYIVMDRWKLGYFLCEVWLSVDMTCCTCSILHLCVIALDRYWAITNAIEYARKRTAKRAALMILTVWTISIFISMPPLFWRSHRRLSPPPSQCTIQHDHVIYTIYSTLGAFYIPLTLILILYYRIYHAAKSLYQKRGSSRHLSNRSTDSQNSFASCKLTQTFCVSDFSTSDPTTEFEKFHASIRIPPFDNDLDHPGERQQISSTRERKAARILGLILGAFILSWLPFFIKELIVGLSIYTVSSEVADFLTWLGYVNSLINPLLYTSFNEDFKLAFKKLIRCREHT

5HT1D2 = 5HT1D2 (Homo sapiens, UniProt P28222); assay: Cross-reactivity binding, human 5HT1D2 receptor; conditions: for Receptor (pKi) 5HT1D2: cloned human receptor
Chain of 5HT1D2 (P28222 whole entry): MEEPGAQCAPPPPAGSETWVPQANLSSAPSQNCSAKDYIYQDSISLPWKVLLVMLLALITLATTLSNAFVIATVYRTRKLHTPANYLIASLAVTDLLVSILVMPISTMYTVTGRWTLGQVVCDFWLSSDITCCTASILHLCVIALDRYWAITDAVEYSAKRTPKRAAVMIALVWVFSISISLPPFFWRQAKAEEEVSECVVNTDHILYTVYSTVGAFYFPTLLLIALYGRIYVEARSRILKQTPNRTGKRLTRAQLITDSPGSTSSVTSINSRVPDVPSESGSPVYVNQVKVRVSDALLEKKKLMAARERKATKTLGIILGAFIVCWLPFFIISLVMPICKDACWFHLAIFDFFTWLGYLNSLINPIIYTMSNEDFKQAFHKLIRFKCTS

human 5HT1Dα receptor = human 5HT1Dα receptor (Homo sapiens, UniProt P28221); assay: Cross-reactivity binding, human 5HT1Dα receptor; conditions: for Receptor (pKi) 5HT1Dα: cloned human receptor
Chain of human 5HT1Dα receptor (P28221 whole entry): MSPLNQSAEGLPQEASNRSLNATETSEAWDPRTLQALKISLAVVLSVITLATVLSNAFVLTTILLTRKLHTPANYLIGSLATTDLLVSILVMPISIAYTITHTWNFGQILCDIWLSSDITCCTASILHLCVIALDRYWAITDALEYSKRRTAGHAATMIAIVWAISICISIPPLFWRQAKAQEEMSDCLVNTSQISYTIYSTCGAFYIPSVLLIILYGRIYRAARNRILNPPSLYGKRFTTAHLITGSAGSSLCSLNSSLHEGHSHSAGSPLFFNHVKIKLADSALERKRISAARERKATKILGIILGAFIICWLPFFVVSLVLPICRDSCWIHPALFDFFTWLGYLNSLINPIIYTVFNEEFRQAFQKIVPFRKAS

[1] = molecular target: human α2C adrenergic receptor (Homo sapiens, UniProt P18825); assay: Cross-reactivity binding, cloned human α2c receptor
Chain of human α2C adrenergic receptor (P18825 whole entry): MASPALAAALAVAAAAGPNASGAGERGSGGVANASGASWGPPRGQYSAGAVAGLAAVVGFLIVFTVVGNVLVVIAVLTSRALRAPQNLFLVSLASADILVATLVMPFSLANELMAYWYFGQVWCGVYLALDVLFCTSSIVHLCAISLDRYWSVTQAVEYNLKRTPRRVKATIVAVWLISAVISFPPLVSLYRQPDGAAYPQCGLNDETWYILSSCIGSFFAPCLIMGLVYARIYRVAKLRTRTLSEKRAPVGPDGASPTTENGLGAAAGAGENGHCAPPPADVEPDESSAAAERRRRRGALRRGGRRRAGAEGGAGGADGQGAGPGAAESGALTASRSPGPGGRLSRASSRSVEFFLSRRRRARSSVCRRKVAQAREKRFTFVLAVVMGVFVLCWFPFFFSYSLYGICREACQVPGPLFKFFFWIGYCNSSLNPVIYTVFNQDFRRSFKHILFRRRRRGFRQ

human Y2 receptor [2] = molecular target: T2, human Y2 receptor (Homo sapiens, UniProt P49146); assay: ^125I-PYY binding of compounds to human Y2 receptor, stably transfected cells
T2 sequence (P49146 1-381): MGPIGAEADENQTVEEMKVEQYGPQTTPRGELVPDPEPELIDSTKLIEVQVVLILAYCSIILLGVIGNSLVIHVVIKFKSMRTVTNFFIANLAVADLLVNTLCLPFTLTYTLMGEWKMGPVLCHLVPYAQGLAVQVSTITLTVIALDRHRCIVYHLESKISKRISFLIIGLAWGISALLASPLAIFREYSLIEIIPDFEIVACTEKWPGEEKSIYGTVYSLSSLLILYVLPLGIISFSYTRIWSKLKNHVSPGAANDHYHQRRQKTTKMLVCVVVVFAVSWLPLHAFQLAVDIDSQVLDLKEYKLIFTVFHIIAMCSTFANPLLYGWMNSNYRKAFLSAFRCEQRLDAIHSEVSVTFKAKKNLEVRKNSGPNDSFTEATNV

human Y1 receptor = human Y1 receptor (Homo sapiens, UniProt P25929); assay: ^125I-PYY binding of compounds to human Y1 receptor, stably transfected cells
Chain of human Y1 receptor (P25929 whole entry): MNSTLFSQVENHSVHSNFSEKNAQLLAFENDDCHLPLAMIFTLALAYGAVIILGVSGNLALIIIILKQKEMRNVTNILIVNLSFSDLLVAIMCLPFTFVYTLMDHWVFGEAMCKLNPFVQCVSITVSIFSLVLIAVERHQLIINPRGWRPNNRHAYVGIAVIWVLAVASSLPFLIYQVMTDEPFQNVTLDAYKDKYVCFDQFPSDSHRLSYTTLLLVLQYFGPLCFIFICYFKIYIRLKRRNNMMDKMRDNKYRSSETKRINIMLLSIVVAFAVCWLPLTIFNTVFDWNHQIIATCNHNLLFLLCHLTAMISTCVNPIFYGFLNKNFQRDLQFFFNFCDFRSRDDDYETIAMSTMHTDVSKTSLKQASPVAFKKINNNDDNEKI

human Y4 receptor [3] = molecular target: T3, human Y4 receptor (Homo sapiens, UniProt P50391); assay: ^125I-PYY binding of compounds to human Y4 receptor, stably transfected cells
T3 sequence (P50391 whole entry): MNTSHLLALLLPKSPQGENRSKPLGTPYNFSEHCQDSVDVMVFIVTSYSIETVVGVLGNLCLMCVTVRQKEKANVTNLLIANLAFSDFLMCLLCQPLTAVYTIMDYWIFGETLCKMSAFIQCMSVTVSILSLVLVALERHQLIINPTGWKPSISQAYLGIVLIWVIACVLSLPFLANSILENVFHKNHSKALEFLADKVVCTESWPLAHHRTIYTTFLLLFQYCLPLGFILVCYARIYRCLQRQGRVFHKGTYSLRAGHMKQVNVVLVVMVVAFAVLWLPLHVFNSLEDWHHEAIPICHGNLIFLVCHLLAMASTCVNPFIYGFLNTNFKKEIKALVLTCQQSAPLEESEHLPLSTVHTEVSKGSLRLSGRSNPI

human Y4 receptor [4] = molecular target: T3, human Y4 receptor; assay: ^125I-PYY binding to cloned human Y4 receptor (COS-7 membranes); conditions: cloned human Y-type receptors; expression system not given
human Y2 receptor [5] = molecular target: T2, human Y2 receptor; assay: ^125I-PYY binding to cloned human Y2 receptor (COS-7 membranes); conditions: cloned human Y-type receptors; expression system not given
rat Y4 receptor = rat Y4 receptor (Rattus norvegicus, UniProt Q63447); assay: ^125I-PYY binding to cloned rat Y4 receptor (COS-7 membranes); conditions: cloned rat Y-type receptors; expression system not given
Chain of rat Y4 receptor (Q63447 whole entry): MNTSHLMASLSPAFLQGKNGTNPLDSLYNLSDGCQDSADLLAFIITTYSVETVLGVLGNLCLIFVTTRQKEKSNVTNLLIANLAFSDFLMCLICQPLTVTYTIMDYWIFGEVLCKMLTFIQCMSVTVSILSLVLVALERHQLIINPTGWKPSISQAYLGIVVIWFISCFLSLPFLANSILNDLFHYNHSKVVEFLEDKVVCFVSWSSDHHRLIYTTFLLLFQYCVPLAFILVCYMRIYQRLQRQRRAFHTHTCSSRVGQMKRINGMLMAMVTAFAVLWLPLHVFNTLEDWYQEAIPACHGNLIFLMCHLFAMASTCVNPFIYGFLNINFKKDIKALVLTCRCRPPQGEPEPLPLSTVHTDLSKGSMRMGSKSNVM

rat Y2 receptor [6] = molecular target: T4, rat Y2 receptor (Rattus norvegicus, UniProt Q9ERC0); assay: ^125I-PYY binding to cloned rat Y2 receptor (COS-7 membranes); conditions: cloned rat Y-type receptors; expression system not given
T4 sequence (Q9ERC0 1-381): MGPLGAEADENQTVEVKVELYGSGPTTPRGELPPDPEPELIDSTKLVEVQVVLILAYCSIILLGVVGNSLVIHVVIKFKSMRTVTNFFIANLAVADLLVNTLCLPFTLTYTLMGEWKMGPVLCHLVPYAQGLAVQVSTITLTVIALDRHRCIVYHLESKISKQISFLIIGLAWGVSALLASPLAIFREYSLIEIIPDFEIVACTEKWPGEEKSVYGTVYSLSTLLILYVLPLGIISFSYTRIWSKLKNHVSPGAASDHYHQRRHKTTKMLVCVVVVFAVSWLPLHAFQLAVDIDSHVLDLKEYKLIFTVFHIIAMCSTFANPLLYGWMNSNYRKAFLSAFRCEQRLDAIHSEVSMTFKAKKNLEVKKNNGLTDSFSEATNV

canine Y5 receptor = assay: Porcine ^125I-PYY binding to canine Y5 receptor (COS-7 membranes); conditions: COS-7 transient, Table 20 prints no unit, nM
rat Y2 receptor [7] = molecular target: T4, rat Y2 receptor; assay: Antagonism of NPY- or PP-induced activation of rat Y2 receptors; format: cell-based; design: expressed in transfected cells; conditions: rat Y2, concentrations up to 1 μM
human 5-HT7 receptor = human 5-HT7 receptor (Homo sapiens, UniProt P34969); assay: Cross-reactivity binding, human 5-HT7 receptor
[8] = molecular target: human α1d adrenergic receptor (Homo sapiens, UniProt P25100); assay: Cross-reactivity binding, cloned human α1d receptor
[9] = molecular target: human α1b adrenergic receptor (Homo sapiens, UniProt P35368); assay: Cross-reactivity binding, cloned human α1b receptor
[10] = molecular target: human α1a adrenergic receptor (Homo sapiens, UniProt P35348); assay: Cross-reactivity binding, cloned human α1a receptor
Chain of human α1a adrenergic receptor (P35348 whole entry): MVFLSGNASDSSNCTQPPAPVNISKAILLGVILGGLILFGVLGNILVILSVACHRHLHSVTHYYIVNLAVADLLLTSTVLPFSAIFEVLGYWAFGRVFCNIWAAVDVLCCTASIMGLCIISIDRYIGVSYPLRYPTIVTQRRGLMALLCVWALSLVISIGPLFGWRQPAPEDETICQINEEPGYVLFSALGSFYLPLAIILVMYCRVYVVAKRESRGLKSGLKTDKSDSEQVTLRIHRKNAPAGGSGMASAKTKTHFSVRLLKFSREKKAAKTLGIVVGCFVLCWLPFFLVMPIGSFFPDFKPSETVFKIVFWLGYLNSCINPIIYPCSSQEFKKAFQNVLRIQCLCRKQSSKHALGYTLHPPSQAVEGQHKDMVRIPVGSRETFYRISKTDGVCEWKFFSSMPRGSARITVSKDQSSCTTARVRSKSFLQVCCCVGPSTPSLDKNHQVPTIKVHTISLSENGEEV

[11] = molecular target: human α2A adrenergic receptor (Homo sapiens, UniProt P08913); assay: Cross-reactivity binding, cloned human α2a receptor
[12] = molecular target: human α2B adrenergic receptor (Homo sapiens, UniProt P18089); assay: Cross-reactivity binding, cloned human α2b receptor
[13] = molecular target: human dopamine D3 receptor (Homo sapiens, UniProt P35462); assay: Cross-reactivity binding, human dopamine D3 receptor
Chain of human dopamine D3 receptor (P35462 whole entry): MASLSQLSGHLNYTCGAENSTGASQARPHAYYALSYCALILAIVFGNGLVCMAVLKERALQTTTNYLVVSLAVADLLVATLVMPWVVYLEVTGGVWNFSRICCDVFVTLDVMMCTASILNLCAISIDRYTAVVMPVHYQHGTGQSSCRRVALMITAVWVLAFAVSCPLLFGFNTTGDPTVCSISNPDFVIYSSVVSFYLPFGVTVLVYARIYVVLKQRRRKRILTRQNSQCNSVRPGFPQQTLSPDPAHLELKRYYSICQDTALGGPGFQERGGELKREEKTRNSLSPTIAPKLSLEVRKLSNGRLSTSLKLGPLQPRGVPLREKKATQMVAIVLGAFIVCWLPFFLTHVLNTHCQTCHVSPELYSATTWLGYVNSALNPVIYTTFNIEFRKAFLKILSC

5HT1a = 5HT1a (Homo sapiens, UniProt P08908); assay: Cross-reactivity binding, human 5HT1a receptor
Chain of 5HT1a (P08908 whole entry): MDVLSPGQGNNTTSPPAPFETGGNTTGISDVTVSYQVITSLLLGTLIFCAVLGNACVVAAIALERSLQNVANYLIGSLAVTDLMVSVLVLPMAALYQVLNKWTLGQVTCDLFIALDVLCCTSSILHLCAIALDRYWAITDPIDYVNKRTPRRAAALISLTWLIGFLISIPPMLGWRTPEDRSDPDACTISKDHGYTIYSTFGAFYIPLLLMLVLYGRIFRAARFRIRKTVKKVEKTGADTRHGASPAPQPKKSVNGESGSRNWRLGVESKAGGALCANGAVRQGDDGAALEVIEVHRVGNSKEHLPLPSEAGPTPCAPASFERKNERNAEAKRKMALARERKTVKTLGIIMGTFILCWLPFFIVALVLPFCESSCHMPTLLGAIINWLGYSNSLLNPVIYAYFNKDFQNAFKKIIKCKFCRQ

human 5HT2 receptor = human 5HT2 receptor (Homo sapiens, UniProt P28223); assay: Cross-reactivity binding, human 5HT2 receptor
Chain of human 5HT2 receptor (P28223 whole entry): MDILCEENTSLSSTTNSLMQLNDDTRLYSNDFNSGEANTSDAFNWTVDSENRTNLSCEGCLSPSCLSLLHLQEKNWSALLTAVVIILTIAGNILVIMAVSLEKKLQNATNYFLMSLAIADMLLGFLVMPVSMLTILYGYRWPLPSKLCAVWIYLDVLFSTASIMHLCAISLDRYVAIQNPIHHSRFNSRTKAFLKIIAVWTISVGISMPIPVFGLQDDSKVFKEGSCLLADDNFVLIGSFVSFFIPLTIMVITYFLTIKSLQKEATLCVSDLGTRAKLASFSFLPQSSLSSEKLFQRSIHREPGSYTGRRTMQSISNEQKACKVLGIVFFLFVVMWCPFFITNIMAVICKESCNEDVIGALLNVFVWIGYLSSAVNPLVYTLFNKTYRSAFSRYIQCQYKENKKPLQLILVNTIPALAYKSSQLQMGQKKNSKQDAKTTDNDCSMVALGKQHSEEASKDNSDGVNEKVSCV

satiated rats = assay: NPY-induced food intake in satiated rats; format: in vivo, rat; conditions: 300 pmole i.c.v., p<0.05 Student-Newman-Keuls
Experimental: For these determinations food intake may be measured in normal satiated rats after intracerebroventricular application (i.c.v.) of NPY in the presence or absence of the test compound. Male Sprague Dawley rats (Ciba-Geigy AG, Sisseln, Switzerland) weighing between 180 g and 220 g are used for all experiments. The rats are individually housed in stainless steel cages and maintained on an 11:13 h light-dark cycle (lights off at 18:00 h) at a controlled temperature of 21-23° C. at all times. Water and food (NAFAG lab chow pellets NAFAG, Gossau, Switzerland) are available ad libidum.
Rats under pentobarbital anesthesia are stereotaxically implanted with a stainless steel guide cannula targeted at the right lateral ventricle. Stereotaxic coordinates, with the incisor bar set −2.0 mm below interaural line, are: −0.8 mm anterior and +1.3 mm lateral to bregma. The guide cannula is placed on the dura. […]
Food intake may be measured by placing preweighed pellets into the cages at the time of NPY injection. […] The food intake of animals treated with test compound may be calculated as a percentage of the food intake of control animals i.e., animals treated with vehicle. Alternatively, food intake for each group of animals subjected to a particular experimental condition may be expressed as the mean±S.E.M. Statistical analysis is performed by analysis of variance using the Student-Newman-Keuls test.

Molecule: Cl.O=[N+]([O-])c1ccccc1S(=O)(=O)NC[C@H]1CC[C@H](CNCC2CCc3ccccc3C2)CC1 (some centres unmarked) [Compound 20]
Receptor (pKi) 5HT1F (human 5HT1F receptor): 5.30 | Receptor (pKi) 5HT1E (human 5HT1E receptor): 5.30

Molecule: Cl.Cl.c1ccc(Nc2nc(Nc3ccc(N4CCCCC4)cc3)nc3ccccc23)cc1 [Compound 6, 2-[4-(Piperidin-1-yl)-phenylamino]-4-phenylamino-quinazoline Dihydrochloride]
Receptor (pKi) 5HT1F (human 5HT1F receptor): 5.30 | Receptor (pKi) 5HT1E (human 5HT1E receptor): 5.30 | Receptor (pKi) 5HT1D2 (5HT1D2): 5.30 | Receptor (pKi) 5HT1Dα (human 5HT1Dα receptor): 5.30 | Ki [1]: 437 nM

Molecule: CNS(=O)(=O)Cc1ccc(Nc2nc(Nc3ccccc3)c3ccccc3n2)cc1.Cl [Compound 11, N-Methyl-[4-(4-phenylamino-quinazolin-2-ylamino)-phenyl]-methanesulfonamide Hydrochloride]
Receptor (pKi) 5HT1F (human 5HT1F receptor): 5.30 | Receptor (pKi) 5HT1E (human 5HT1E receptor): 5.30 | Receptor (pKi) 5HT1D2 (5HT1D2): 5.30 | Receptor (pKi) 5HT1Dα (human 5HT1Dα receptor): 5.30 | Ki (human Y2 receptor [2]): > 100000 nM

Ki (human Y1 receptor; read-out: Binding Affinity (Ki (nM) vs. ^125I-PYY) Human Receptor Y1, stably transfected 293 or LM(tk-) cells, compound 1 also COS-7 data): > 100000 nM | Ki (human Y2 receptor [2]; read-out: Binding Affinity (Ki (nM) vs. ^125I-PYY) Human Receptor Y2, stably transfected 293 or LM(tk-) cells, compound 1 also COS-7 data): > 75000 nM | Ki (human Y4 receptor [3]; read-out: Binding Affinity (Ki (nM) vs. ^125I-PYY) Human Receptor Y4, stably transfected cells): > 100000 nM
Molecule: 2-(Naphthalen-1-yl)-3-phenylpropane-1,2-diamine [Compound 28]

Molecule: COc1ccc(Nc2nc(Nc3ccccc3)c3cccc(OC)c3n2)cc1.Cl [Compound 9, 8-Methoxy-2-(4-methoxy-phenylamino)-4-phenylamino-quinazoline Hydrochloride]
Receptor (pKi) 5HT1F (human 5HT1F receptor): 5.30 | Receptor (pKi) 5HT1E (human 5HT1E receptor): 5.30 | Receptor (pKi) 5HT1D2 (5HT1D2): 5.30 | Receptor (pKi) 5HT1Dα (human 5HT1Dα receptor): 5.30 | Ki (human Y2 receptor [2]): > 100000 nM

Ki (human Y4 receptor [4]): 8 µM | Ki (human Y2 receptor [5]): 6.9 µM | Ki (rat Y4 receptor): 420 nM | Ki (rat Y2 receptor [6]): 66 µM | Ki (canine Y5 receptor): 17000 nM | antagonism of NPY- or PP-induced activation (rat Y2 receptor [7]): no evidence for antagonism
Molecule: NC(N)=NCCC[C@@H](NC(=O)C(c1ccccc1)c1ccccc1)C(=O)NCc1ccc(O)cc1 [BIBP 3226]

Molecule: CC(=O)O[C@H]1CC[C@H](Nc2nc(Nc3ccccc3)c3ccccc3n2)CC1 [Compound 7, trans-2-(4-Acetoxy-cyclohexylamino)-4-phenylamino-quinazoline Hydrochloride]
Ki (human 5-HT7 receptor): 229 nM | Ki (human 5HT1F receptor): 5.01 µM | Ki (human 5HT1E receptor): 5.01 µM | Ki (5HT1D2): 5.01 µM | Ki (human 5HT1Dα receptor): 1410 nM | Ki [8]: 347 nM | Ki [9]: 832 nM | Ki [10]: 871 nM | Ki [11]: 69.2 nM | Ki [12]: 813 nM | Ki [1]: 141 nM | Ki (human Y1 receptor): 2170 nM | Ki (human Y2 receptor [2]): 2870 nM | Ki (human Y4 receptor [3]): 7050 nM

Molecule: Cl.Nc1nc(NC[C@H]2CC[C@H](CNS(=O)(=O)c3cccc4ccccc34)CC2)nc2ccccc12 [Compound 5, trans-Naphthalene-1-sulfonic Acid {4-[(4-amino-quinazolin-2-ylamino)-methyl]-cyclohexylmethyl}-amide Hydrochloride]
Ki ([13]; cloned human receptor, read-out: Receptor (pKi) D3 (converted)): 57.5 nM | Ki (5HT1a; cloned human receptor, read-out: Receptor (pKi) 5HT1a (converted)): 0.468 µM | Ki (human 5HT2 receptor; cloned human receptor, read-out: Receptor (pKi) 5HT2 (converted)): 389 nM | Receptor (pKi) 5HT1F (human 5HT1F receptor): 5.30 | Receptor (pKi) 5HT1E (human 5HT1E receptor): 5.30

Molecule: Cl.c1ccc(Nc2nc(Nc3ccccc3)c3ccccc3n2)cc1 [Compound 1, 2,4-Diphenylamino-quinazoline Hydrochloride]
Ki [13]: 2040 nM | Ki (5HT1a): 30.9 µM | Ki (human 5HT2 receptor): 457 nM | Receptor (pKi) 5HT1F (human 5HT1F receptor): 5.30 | Receptor (pKi) 5HT1E (human 5HT1E receptor): 5.30 | Receptor (pKi) 5HT1D2 (5HT1D2): 5.30

Ki (human 5HT1F receptor): 5.01 µM | Ki (human 5HT1E receptor): 5.01 µM
Molecule: O=S(=O)(NC[C@H]1CC[C@H](CNC(CO)Cc2ccc(Cl)cc2)CC1)c1cccc2ccccc12 (stereo partly drawn) [Compound 25, Naphthalene-1-sulfonic Acid trans-(4-{[2-(4-Chlorophenyl)-1-hydroxymethyl-ethylamino]-methyl}cyclohexylmethyl)-amide]

Molecule: Cl.O=S(=O)(NC[C@H]1CC[C@H](CNCC2CCc3ccccc3C2)CC1)c1cccc2ccccc12 (some centres unmarked) [Compound 19]
Receptor (pKi) 5HT1F (human 5HT1F receptor): 5.30 | Receptor (pKi) 5HT1E (human 5HT1E receptor): 5.30 | Receptor (pKi) 5HT1D2 (5HT1D2): 5.30

Molecule: NPY: neuropeptide Y; porcine NPY, 300 pmole i.c.v., in the feeding studies
effect on food intake vs vehicles (satiated rats): significantly induce food intake

Molecule: CNS(=O)(=O)Cc1ccc(Nc2nc(Nc3ccccc3)c3cc(OC)ccc3n2)cc1.Cl [Compound 10, N-Methyl-[4-(6-methoxy-4-phenylamino-quinazolin-2-ylamino)-phenyl]-methanesulfonamide Hydrochloride]
Receptor (pKi) 5HT1F (human 5HT1F receptor): 5.30 | Receptor (pKi) 5HT1E (human 5HT1E receptor): 5.30 | Receptor (pKi) 5HT1D2 (5HT1D2): 5.30 | Receptor (pKi) 5HT1Dα (human 5HT1Dα receptor): 5.30 | Ki (human Y2 receptor [2]): > 100000 nM
